Each structure is given as a SMILES string.

By Kd is commonly meant the free concentration of one partner at which half of the binding sites on the other are occupied at equilibrium, for simple one-to-one binding. Low readings indicate higher affinity, high ones lower affinity.

The target of assay [1] is Sodium-dependent serotonin transporter (Rattus norvegicus, UniProt P31652). Nature of the assay: Binding affinity of the radio labeled [3H]5-Methyl-6-nitroquipazine compound against Serotonin transporter in rat frontal cortex homogenates. In kind it is tissue-based.
Assay [2] concerns the target Sodium-dependent serotonin transporter (Rattus norvegicus) (UniProt P31652). Nature of the assay: Enzyme kinetic constant, Bmax was evaluated against Serotonin transporter.

Sodium-dependent serotonin transporter, sequence (P31652 whole entry): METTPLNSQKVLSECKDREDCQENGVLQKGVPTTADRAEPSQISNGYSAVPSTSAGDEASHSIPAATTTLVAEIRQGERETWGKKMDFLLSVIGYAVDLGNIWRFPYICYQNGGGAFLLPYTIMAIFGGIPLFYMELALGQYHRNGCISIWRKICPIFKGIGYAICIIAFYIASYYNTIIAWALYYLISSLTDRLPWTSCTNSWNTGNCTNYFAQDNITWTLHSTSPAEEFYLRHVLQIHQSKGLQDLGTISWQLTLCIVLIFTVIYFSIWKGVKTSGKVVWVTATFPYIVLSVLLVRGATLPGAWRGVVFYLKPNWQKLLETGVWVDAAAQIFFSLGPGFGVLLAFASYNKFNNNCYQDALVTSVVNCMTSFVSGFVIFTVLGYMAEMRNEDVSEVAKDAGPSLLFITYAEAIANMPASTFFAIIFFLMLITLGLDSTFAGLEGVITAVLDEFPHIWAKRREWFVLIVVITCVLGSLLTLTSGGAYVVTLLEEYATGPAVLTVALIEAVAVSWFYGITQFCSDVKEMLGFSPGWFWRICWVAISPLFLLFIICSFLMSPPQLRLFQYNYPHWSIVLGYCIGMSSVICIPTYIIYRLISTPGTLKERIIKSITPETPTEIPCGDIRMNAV
Sodium-dependent serotonin transporter (Rattus norvegicus), sequence (P31652 whole entry): as above

`Cc1c([N+](=O)[O-])ccc2nc(N3CCNCC3)ccc12` gave a Kd in assay [1] of 51 pM. Also, the Bmax in assay [2] came to 1530 fmol/mg.
For the compound `O=[N+]([O-])c1ccc2nc(N3CCNCC3)ccc2c1` [6-NITROQUIPAZINE], the Kd in assay [1] is 51 pM. Moreover, in assay [2], the Bmax came to 1530 fmol/mg.
